Target: T1, eIF3d and eIF4G2 complex (Homo sapiens, UniProt O15371)
T1 construct: both recombinant from E. coli, 6xHis tags cut by TEV; full-length human eIF4G2; with Eukaryotic translation initiation factor 4 gamma 2
Assay: fluorescence anisotropy competition with fluorescein-labelled m7G-capped […]'UTR RNA
Format: binding
Conditions: 20 mM Hepes-KOH pH 7.5, 100 mM KCl, 1 mM MgCl2, 25 C, cap analog competing with 10 nM capped CD101, ITGAE or ACTB RNA, m7GDP concentration not given, ligand site assigned to the eIF3d c

T1 sequence (O15371 whole entry): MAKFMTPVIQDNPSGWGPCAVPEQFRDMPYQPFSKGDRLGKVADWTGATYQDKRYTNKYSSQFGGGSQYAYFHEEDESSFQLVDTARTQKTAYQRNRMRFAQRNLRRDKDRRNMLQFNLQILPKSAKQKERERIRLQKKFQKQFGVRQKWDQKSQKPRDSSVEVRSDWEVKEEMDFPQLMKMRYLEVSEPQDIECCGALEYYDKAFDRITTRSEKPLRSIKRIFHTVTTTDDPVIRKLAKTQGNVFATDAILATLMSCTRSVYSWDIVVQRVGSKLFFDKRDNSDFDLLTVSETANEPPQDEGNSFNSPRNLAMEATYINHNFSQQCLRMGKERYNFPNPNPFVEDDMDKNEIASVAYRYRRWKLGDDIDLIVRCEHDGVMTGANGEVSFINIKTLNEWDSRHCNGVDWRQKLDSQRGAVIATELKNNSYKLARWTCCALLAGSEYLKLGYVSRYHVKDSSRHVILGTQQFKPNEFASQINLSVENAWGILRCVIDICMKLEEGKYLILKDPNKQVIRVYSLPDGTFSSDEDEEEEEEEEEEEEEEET
T1 sequence (P78344 whole entry partner): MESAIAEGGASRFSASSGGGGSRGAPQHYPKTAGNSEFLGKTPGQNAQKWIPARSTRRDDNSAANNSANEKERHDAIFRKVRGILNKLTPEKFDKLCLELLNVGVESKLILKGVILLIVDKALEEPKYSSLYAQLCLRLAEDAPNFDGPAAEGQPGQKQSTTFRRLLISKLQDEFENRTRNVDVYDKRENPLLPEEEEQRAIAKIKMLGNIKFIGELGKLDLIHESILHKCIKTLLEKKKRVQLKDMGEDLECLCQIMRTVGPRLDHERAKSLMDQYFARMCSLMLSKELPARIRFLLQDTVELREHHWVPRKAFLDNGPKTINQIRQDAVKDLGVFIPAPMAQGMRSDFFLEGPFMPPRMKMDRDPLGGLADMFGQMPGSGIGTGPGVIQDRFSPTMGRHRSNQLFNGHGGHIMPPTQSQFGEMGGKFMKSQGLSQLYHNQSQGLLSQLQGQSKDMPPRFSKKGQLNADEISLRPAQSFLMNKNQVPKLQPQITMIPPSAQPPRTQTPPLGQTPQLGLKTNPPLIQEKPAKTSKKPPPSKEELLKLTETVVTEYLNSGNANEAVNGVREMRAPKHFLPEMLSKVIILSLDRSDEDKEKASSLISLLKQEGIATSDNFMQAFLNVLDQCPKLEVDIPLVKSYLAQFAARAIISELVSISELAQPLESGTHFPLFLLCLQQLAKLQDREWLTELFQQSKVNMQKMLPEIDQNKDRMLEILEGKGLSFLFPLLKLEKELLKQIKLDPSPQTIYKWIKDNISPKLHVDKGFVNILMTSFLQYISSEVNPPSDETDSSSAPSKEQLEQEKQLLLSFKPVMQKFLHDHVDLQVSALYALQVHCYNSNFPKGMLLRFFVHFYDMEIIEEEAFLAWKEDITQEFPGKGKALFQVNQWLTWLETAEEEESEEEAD

C[n+]1cn([C@@H]2O[C@H](COP(=O)(O)OP(=O)(O)O)[C@@H](O)[C@H]2O)c2nc(N)[nH]c(=O)c21 [m^7GDP]
fluorescence anisotropy competition with fluorescein-labelled m7G-capped 5'UTR R: reduction in the binding affinity of the eIF3d/eIF4G2 complex to the m^7G cap was also observed
